This passage reports GI50 and TGI results from PubChem BioAssay (NCI).

What all share (experiment): DTP human tumour cell line panel, 48 h
Assay [1] has as its system SK-MEL-28 melanoma.
For assay [2], the system named is T-47D breast.
In assay [3] the test system is HT29 colon.
Assay [4] relates to SF-539 CNS.
For assay [5], the system named is DU-145 prostate.
Assay [6] relates to UACC-62 melanoma.
Assay [7] has as its system SF-268 CNS.
For assay [8], the system named is BT-549 breast.
The test system of assay [9] is UO-31 renal.
The test system of assay [10] is SR leukemia.

Values joined by “and” are separate entries in the source; they are usually repeats but may differ in a detail not shown here. Identical values can stand only once.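 Growth conditions: 96-well plates. Treatment: test compound, 48 hours, 5 concentrations. Analysis: linear interpolation between bracketing concentrations; unreached endpoints set to highest concentration. GI50 is the concentration that inhibits growth by half. TGI: total growth inhibition.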

With `CCOC(=O)c1c(NN2CCN(CC(F)(F)F)CC2)oc(/C=C2\C=Nc3ncccc32)c1O`, the GI50 is 11000 nM in assay [1]; 5080 nM in assay [2]; 2470 nM in [3]; 2330 nM in assay [4]; 4750 nM in assay [5]; 4830 nM in [6]. Further, the GI50 was 3040 nM in assay [7], 1590 nM in assay [8], 5110 nM in assay [9] and 689 nM in assay [10]. Further, the TGI in [1] was found to be 29900 nM; in [2], 34800 nM; in assay [3], 17100 nM; in assay [4], 13900 nM; in assay [5], 23700 nM; in assay [6] it was 15100 nM. Further, the TGI was found to be 16100 nM in assay [7], 5680 nM in [8], 28900 nM in assay [9] and 3810 nM in assay [10].

Take `CC(=O)O[C@@H]1c2c(c3c(=O)c4cccc(O)c4c(=O)c=3c2=[N+]=[N-])[C@H](OC(C)=O)[C@@H](OC(C)=O)[C@]1(C)O`: the GI50 in assay [1] is 829 nM; in assay [2] it was 132 nM and 317 nM; in assay [3] it was 135 nM and 113 nM; in assay [4], 162 nM; in assay [5] it was 295 nM; in assay [6], 297 nM. For the same compound, the GI50 is 391 nM in [7], 167 nM in assay [9] and 58.2 nM in assay [10]. Moreover, the TGI in assay [1] is 1510 nM and 2280 nM; in assay [2], 649 nM and 1390 nM; in [3], 605 nM and 265 nM; in [4] it was 1140 nM and 316 nM; in assay [5], 1050 nM and 1170 nM; in assay [6] it was 1350 nM and 1020 nM. Moreover, the TGI in assay [7] is 914 nM and 1670 nM; in assay [8] it was 1330 nM; in assay [9], 1190 nM and 352 nM; in [10], 370 nM and 360 nM.

In the case of `NC(=O)c1cn(C2CC(O)C(CO)O2)c2ncnc(N)c12` (stereo not drawn), the GI50 is 7280 nM in assay [1]; 54.9 nM in assay [2]; 2070 nM in assay [3]; 3340 nM in assay [4]; 1410 nM in assay [5]; 2390 nM in assay [6]. Further, the GI50 in [7] is 6170 nM; in assay [8] it was 203 nM; in assay [9], 1840 nM; in assay [10], 6600 nM. Besides, the TGI in assay [1] was > 83100 nM; in assay [2], 1820 nM; in [3], > 54800 nM; in [4], 15100 nM; in [5], 10400 nM; in assay [6], 23000 nM. Further, the TGI was > 76900 nM in assay [7], 2870 nM in assay [8], 18500 nM in assay [9] and > 100000 nM in assay [10].

On to `CCn1nc(C2CCN(C(=O)CCO)CC2)nc1-c1cnc(N)c(-c2nnc(C(C)(C)C)o2)n1`, for which the GI50 was 4780 nM in [1]; 73.1 nM in assay [2]; 630 nM in [3]; 5740 nM in [4]; 16700 nM in assay [5]; 2070 nM in [6]. Further, the GI50 is 23100 nM in assay [7], 7280 nM in assay [8], 966 nM in assay [9] and 15500 nM in [10]. The TGI in assay [1] was > 100000 nM; in [2], 570 nM; in assay [3], 22000 nM; in assay [4], > 100000 nM; in [5], > 100000 nM; in assay [6] it was > 100000 nM. Also, the TGI was > 100000 nM in assay [7], > 100000 nM in assay [8], 51700 nM in assay [9] and > 88400 nM in [10].

Turning to `Clc1ccc(-c2cnc3c(-c4ccnc(N5CCNCC5)c4)cnn3c2)cc1`, the GI50 was 1790 nM in [1]; 1820 nM in [2]; 1240 nM in assay [3]; 1740 nM in [4]; 1640 nM in assay [5]; 2060 nM in assay [6]. Besides, the GI50 in assay [7] is 1910 nM; in assay [8], 1600 nM; in assay [9], 1610 nM; in [10] it was 1600 nM. The TGI in [1] amounted to 3200 nM; in assay [2] it was 3800 nM; in assay [3] it was 2530 nM; in assay [4] it was 3290 nM; in [5] it was 3020 nM; in assay [6] it was 3910 nM. Moreover, the TGI in [7] is 3690 nM; in [8], 3020 nM; in [9], 3590 nM; in assay [10], 4580 nM.

In the case of `CCCCCCCCCCCCCCCCn1cc[n+](C)c1`, the GI50 in assay [1] was 707 nM; in assay [2], 398 nM; in assay [3], 291 nM; in assay [4] it was 1160 nM; in assay [5], 651 nM; in [6], 538 nM. Besides, the GI50 is 837 nM in [7], 444 nM in assay [8], 1040 nM in assay [9] and 74.2 nM in assay [10]. The TGI amounted to 2050 nM in assay [1]; 1250 nM in assay [3]; 2380 nM in assay [4]; 1940 nM in [5]; 1880 nM in [6]; 2120 nM in assay [7]. Also, the TGI in [8] was found to be 1610 nM; in assay [9], 2240 nM; in assay [10], 787 nM.

For `COc1ccc(Nc2ncc(I)c(NCCCNC(=O)C3CCC3)n2)cc1`, the GI50 is 18000 nM in assay [1]; 28400 nM in assay [2]; 13100 nM in assay [3]; 3470 nM in assay [4]; 9210 nM in [5]; 17200 nM in [6]. Also, the GI50 was 2010 nM in assay [7], 2520 nM in assay [8], 730 nM in assay [9] and 4910 nM in [10]. Besides, the TGI in assay [1] was > 100000 nM; in [2], 79000 nM; in [3], 71000 nM; in [4] it was 18400 nM; in assay [5], > 100000 nM; in [6] it was 43200 nM. In addition, the TGI in [7] is 29900 nM; in [8], 7920 nM; in [9] it was 3850 nM; in assay [10], > 100000 nM.
